Assay results from PubChem BioAssay AID2060489 (Molecular Pharmacology Branch, DTP, NCI, 2025).

Tested on: 922993-354-T-J3-PDC complex spheroids, viability
Test: Anticancer human tumor 922993-354-T-J3-PDC patient-derived endometrial carcinoma cell line growth inhibition [GQUAD]
Conditions: for IC50: curve of first compound; for viability, T/C: stronger effect = lower value
Procedure, shortened: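 Tumor cells were grown as complex spheroids with HUVEC endothelial cells and mesenchymal stem cells as stroma. G-quadruplex stabilizers were combined with targeted agents over half-log dilutions from near the clinical Cmax, or from 10 microM.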

[1] = second compound 0.0316 µM, first compound 0.0316 µM
[2] = second compound 0.0316 µM, first compound 0.1 µM
[3] = second compound 0.0316 µM, first compound 0.316 µM
[4] = second compound 0.0316 µM, first compound 1 µM
[5] = second compound 0.0316 µM, first compound 3.16 µM
[6] = second compound 0.0316 µM, first compound 10 µM
[7] = second compound 0.1 µM, first compound 0.0316 µM
[8] = second compound 0.1 µM, first compound 0.1 µM
[9] = second compound 0.1 µM, first compound 0.316 µM
[10] = second compound 0.1 µM, first compound 1 µM
[11] = second compound 0.1 µM, first compound 3.16 µM
[12] = second compound 0.1 µM, first compound 10 µM
[13] = second compound 0.316 µM, first compound 0.0316 µM
[14] = second compound 0.316 µM, first compound 0.1 µM
[15] = second compound 0.316 µM, first compound 0.316 µM
[16] = second compound 0.316 µM, first compound 1 µM
[17] = second compound 0.316 µM, first compound 3.16 µM
[18] = second compound 0.316 µM, first compound 10 µM
[19] = second compound 1 µM, first compound 0.0316 µM
[20] = second compound 1 µM, first compound 0.1 µM
[21] = second compound 1 µM, first compound 0.316 µM
[22] = second compound 1 µM, first compound 1 µM
[23] = second compound 1 µM, first compound 3.16 µM
[24] = second compound 1 µM, first compound 10 µM
[25] = second compound 3.16 µM, first compound 0.0316 µM
[26] = second compound 3.16 µM, first compound 0.1 µM
[27] = second compound 3.16 µM, first compound 0.316 µM
[28] = second compound 3.16 µM, first compound 1 µM
[29] = second compound 3.16 µM, first compound 3.16 µM
[30] = second compound 3.16 µM, first compound 10 µM
[31] = second compound 10 µM, first compound 0.0316 µM
[32] = second compound 10 µM, first compound 0.1 µM
[33] = second compound 10 µM, first compound 0.316 µM
[34] = second compound 10 µM, first compound 1 µM
[35] = second compound 10 µM, first compound 3.16 µM
[36] = second compound 10 µM, first compound 10 µM
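Further: spheroids exposed to compounds for seven days.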
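Wherever viability, T/C is given: 100% = DMSO vehicle control viability.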

## CC1COCCN1c1cc(C2(O)CC3CCC(C2)O3)c2cnn(-c3ccn[nH]3)c2n1 (stereo unspecified) + Cc1cnc(CNC(=O)c2c(=O)c3ccc(N4CCCN(C)CC4)nc3n3c2sc2ccccc23)cn1
Second compound 0.0316 µM
  IC50: 214 nM
Second compound 0.1 µM
  IC50: 86.1 nM
Second compound 0.316 µM
  IC50: < 31.6 nM
Second compound 1 µM
  IC50: < 31.6 nM
Second compound 3.16 µM
  IC50: < 31.6 nM
Second compound 10 µM
  IC50: < 31.6 nM
[1]
  viability, T/C: 79.9%
[2]
  viability, T/C: 64.3%
[3]
  viability, T/C: 40.1%
[4]
  viability, T/C: 32.2%
[5]
  viability, T/C: 28.6%
[6]
  viability, T/C: 18.2%
[7]
  viability, T/C: 68.8%
[8]
  viability, T/C: 43.1%
[9]
  viability, T/C: 40.9%
[10]
  viability, T/C: 21%
[11]
  viability, T/C: 26.6%
[12]
  viability, T/C: 16.5%
[13]
  viability, T/C: 47.4%
[14]
  viability, T/C: 46.2%
[15]
  viability, T/C: 37.1%
[16]
  viability, T/C: 23.1%
[17]
  viability, T/C: 22.1%
[18]
  viability, T/C: 12.5%
[19]
  viability, T/C: 46.2%
[20]
  viability, T/C: 43.1%
[21]
  viability, T/C: 50.8%
[22]
  viability, T/C: 34.2%
[23]
  viability, T/C: 23.3%
[24]
  viability, T/C: 4.13%
[25]
  viability, T/C: 44.8%
[26]
  viability, T/C: 44.2%
[27]
  viability, T/C: 45.2%
[28]
  viability, T/C: 29.4%
[29]
  viability, T/C: 3.29%
[30]
  viability, T/C: 0.13%
[31]
  viability, T/C: 45.5%
[32]
  viability, T/C: 37.9%
[33]
  viability, T/C: 31.4%
[34]
  viability, T/C: 14.6%
[35]
  viability, T/C: 0.21%
[36]
  viability, T/C: 0.2%

## CC1COCCN1c1cc(C2(S(C)(=N)=O)CC2)nc(-c2ccnc3[nH]ccc23)n1 (stereo unspecified) + Cc1cnc(CNC(=O)c2c(=O)c3ccc(N4CCCN(C)CC4)nc3n3c2sc2ccccc23)cn1
Second compound 0.0316 µM
  IC50: 7860 nM
Second compound 0.1 µM
  IC50: 5470 nM
Second compound 0.316 µM
  IC50: 172 nM
Second compound 1 µM
  IC50: > 10000 nM
Second compound 3.16 µM
  IC50: > 10000 nM
Second compound 10 µM
  IC50: < 31.6 nM
[1]
  viability, T/C: 87.9%
[2]
  viability, T/C: 79.4%
[3]
  viability, T/C: 82.8%
[4]
  viability, T/C: 67.9%
[5]
  viability, T/C: 91.5%
[6]
  viability, T/C: 41.6%
[7]
  viability, T/C: 70.4%
[8]
  viability, T/C: 63.5%
[9]
  viability, T/C: 55.2%
[10]
  viability, T/C: 61%
[11]
  viability, T/C: 66%
[12]
  viability, T/C: 35.5%
[13]
  viability, T/C: 59.9%
[14]
  viability, T/C: 50.7%
[15]
  viability, T/C: 50.9%
[16]
  viability, T/C: 38.8%
[17]
  viability, T/C: 50.5%
[18]
  viability, T/C: 39.2%
[19]
  viability, T/C: 46.3%
[20]
  viability, T/C: 60.1%
[21]
  viability, T/C: 51.7%
[22]
  viability, T/C: 45.2%
[23]
  viability, T/C: 48.5%
[24]
  viability, T/C: 53.3%
[25]
  viability, T/C: 49.1%
[26]
  viability, T/C: 52.8%
[27]
  viability, T/C: 54.4%
[28]
  viability, T/C: 48%
[29]
  viability, T/C: 54.4%
[30]
  viability, T/C: 52.5%
[31]
  viability, T/C: 51.8%
[32]
  viability, T/C: 42.9%
[33]
  viability, T/C: 54%
[34]
  viability, T/C: 50.6%
[35]
  viability, T/C: 47.3%
[36]
  viability, T/C: 53.6%

## O=C(c1cc(Cc2n[nH]c(=O)c3ccccc23)ccc1F)N1CCN(C(=O)C2CC2)CC1 + Cc1cnc(CNC(=O)c2c(=O)c3ccc(N4CCCN(C)CC4)nc3n3c2sc2ccccc23)cn1
Second compound 0.0316 µM
  IC50: > 10000 nM
Second compound 0.1 µM
  IC50: > 10000 nM
Second compound 0.316 µM
  IC50: < 31.6 nM
Second compound 1 µM
  IC50: < 31.6 nM
Second compound 3.16 µM
  IC50: < 31.6 nM
Second compound 10 µM
  IC50: 3770 nM
[1]
  viability, T/C: 79.7%
[2]
  viability, T/C: 78%
[3]
  viability, T/C: 90.8%
[4]
  viability, T/C: 92.5%
[5]
  viability, T/C: 61.2%
[6]
  viability, T/C: 75%
[7]
  viability, T/C: 74.1%
[8]
  viability, T/C: 68.3%
[9]
  viability, T/C: 64.1%
[10]
  viability, T/C: 49.1%
[11]
  viability, T/C: 54.4%
[12]
  viability, T/C: 76%
[13]
  viability, T/C: 57.4%
[14]
  viability, T/C: 46.1%
[15]
  viability, T/C: 39.4%
[16]
  viability, T/C: 42%
[17]
  viability, T/C: 50.4%
[18]
  viability, T/C: 55.3%
[19]
  viability, T/C: 50.2%
[20]
  viability, T/C: 51.7%
[21]
  viability, T/C: 37.2%
[22]
  viability, T/C: 43.5%
[23]
  viability, T/C: 48.5%
[24]
  viability, T/C: 41.1%
[25]
  viability, T/C: 43.7%
[26]
  viability, T/C: 53.4%
[27]
  viability, T/C: 53.4%
[28]
  viability, T/C: 57.7%
[29]
  viability, T/C: 51.3%
[30]
  viability, T/C: 49.8%
[31]
  viability, T/C: 42.8%
[32]
  viability, T/C: 53.4%
[33]
  viability, T/C: 60.1%
[34]
  viability, T/C: 52.8%
[35]
  viability, T/C: 52%
[36]
  viability, T/C: 39.2%
